# Assay results as given in ChEMBL document CHEMBL5614449, “Open Source Code Contributions to Global Health: The Case of Antimalarial Drug Discovery” (ACS Med Chem Lett, 2024).
# Tested on: Plasmodium
# Assay: Antiplasmodial activity against Plasmodium
# Assay type: functional, organism-based
row,SMILES,IC50 [nM]
1,FC(F)Oc1ccc(-c2nnc3cncc(OCc4ccc5c(c4)OCO5)n23)cc1,> 10000
2,FC(F)Oc1ccc(-c2nnc3cncc(OCCCC(F)(F)F)n23)cc1,410
3,FC(F)Oc1ccc(-c2nnc3cncc(OCc4ccc(C(F)(F)F)cc4)n23)cc1,5270
4,Fc1cc2c(cc1F)C(COc1cncc3nnc(-c4ccc(OC(F)F)cc4)n13)C2 (stereo not drawn),480
5,FC(F)Oc1ccc(-c2nnc3cncc(OCc4cc5c(cc4Cl)OCO5)n23)cc1,> 25000
6,FC(F)Oc1ccc(-c2nnc3cncc(OCc4ccccc4C(F)(F)F)n23)cc1,890
7,FC(F)Oc1ccc(-c2nnc3cncc(OCc4csc(C(F)(F)F)c4)n23)cc1,2460
8,FC(F)Oc1ccc(-c2nnc3cncc(OCc4cnccc4C(F)(F)F)n23)cc1,5900
9,FC(F)Oc1ccc(-c2nnc3cncc(OCc4cc(OC(F)F)ccn4)n23)cc1,5040
10,COC(COc1cncc2nnc(-c3ccc(OC(F)F)cc3)n12)c1ccccc1 (stereo not drawn),110
11,COC(COc1cncc2nnc(-c3ccc(OC(F)F)cc3)n12)c1ccc(OC(F)F)cc1 (stereo not drawn),77

# Other lines, results leading:
row,IC50 [nM],SMILES
1,170,FC(F)Oc1ccc(-c2nnc3cncc(OCCc4ccccc4)n23)cc1
2,1350,Fc1cccc(OCCOc2cncc3nnc(-c4ccc(OC(F)F)cc4)n23)c1
3,390,FC(F)Oc1ccc(-c2nnc3cncc(OCc4cccc(C(F)(F)F)c4)n23)cc1
4,250,O=[N+]([O-])c1cccc(CCOc2cncc3nnc(-c4ccc(OC(F)F)cc4)n23)c1
5,4080,Fc1cccc(F)c1COc1cncc2nnc(-c3ccc(OC(F)F)cc3)n12
6,1120,FC(F)Oc1ccc(-c2nnc3cncc(OCc4ccccc4)n23)cc1
7,670,FC(F)Oc1ccc(-c2nnc3cncc(OCc4cccc(Br)c4)n23)cc1
